According to EP0166357A2, “Benzofused lactams and pharmaceutical compositions containing them” (Merck & Co., Inc., priority 1984, dated 1986):

Biological target: CCK receptor
Assay: 125I-CCK-33 receptor binding assay
Details: tissue not stated for the values (methods given for rat pancreas and guinea pig brain cortex membranes); read-out: IC50, inhibition of specific 125I-CCK-33 binding
Experimental: CCK-33 was radiolabeled with […] (2000 Ci/mmole) as described by Sankara et al. [J. Biol. Chem. 254: 9349-9351, (1979)]. Receptor binding was performed according to Innis and Snyder [Proc. Natl. Acad. Sci. 77: 6917-6921, (1980)] with the minor modification of adding the additional protease inhibitors, phenylmethane sulfonyl fluoride and o-phenanthroline. The latter two compounds have no effect on the ^125I-CCK receptor binding assay.
Male Sprague-Dawley rats (200-350g) were sacrificed by decapitation. The whole pancreas was dissected free of fat tissue and was homogenized in 20 volumes of ice-cold 50 mM, Tris HC1 (pH 7.7 at 25°C) with a Brinkman Polytron PT 10. The homogenates were centrifuged at 48,000 g for 10 min. Pellets were resuspended in Tris Buffer, centrifuged as above and resuspended in 200 volumes of binding assay buffer (50 mM Tris HC1, pH 7.7 at 25°C, 5 mM dithiothriethel, 0.1 mM bacitracin, 1.2 mM phenylmethane sulfonyl fluoride and 0.5 mM o-phenanthroline). For the binding assay, 25 µl of buffer (for total binding) or unlabeled CCK-8 sulfate to give a final concentration of luM (for nonspecific binding) or the compounds of Formula 1 (for determination inhibition of 125I-CCR binding) and 25 µl of 125I-CCK-33 (30,000-40,000 cpm) were added to 450 µl of the membrane suspensions in microfuge tubes. All assays were run in duplicate or triplicate. The reaction mixtures were incubated at 37°C for 30 minutes and centrifuged in a Beckman Microfuge (4 minutes) immediately after adding 1 ml of ice-cold incubation buffer. The supernatant was aspirated and discarded, pellets were counted with a Beckman gamma 5000.
CCK-33 was radiolabeled with and the binding was performed according to the description for the pancreas method with modifications according to Saito, et al. (J. Neurochem, 37, 483-490 (1981)).
Hall Hartley guinea pigs (300-500 g) were sacrificed by decapitation and the brains were removed and placed in ice-cold 50 mM, Tris HC1 plus 7.58 g/1 Tritma-7.4 (pH 7.4 at 25°C) Cerebral cortex was dissected and used as a receptor source. Each gram of fresh guinea pig brain tissue was homogenized in 10 ml of Tris/Trizma buffer with a Brinkman polytron PT-10. The homogenates were centrifuged at 42,000 g for 15 minutes. Pellets were resuspended in Tris Buffer, centrifuged as above and resuspended in 200 volumes of binding assay buffer (10 mM HEPES, pH 7.7 at 25°C, 5 mM Mg C12, […], 0.4% BSA (bovine serum albumin) and 0.25 mg/ml bacitracin). For the binding assay, 25 µl of buffer (for total binding) or unlabeled CCK-8 sulfate to give a final concentration of 1µM (for nonspecific binding) or the compounds of Formula 1 (for determination inhibition of ^125I-CCK binding) and 25 µl of ^125I-CCK-33 (30,00-40,000 cpm) were added to 450 µl of the membrane suspensions in microfuge tubes. All assays were run in duplicate or triplicate. The reaction mixtures were incubated at 25°C for 2 hours and centrifuged in a Beckman Microfuge (4 minutes) immedidately after adding 1 ml of ice-cold incubation buffer. The supernatant was aspirated and discarded, pellets were counted with a Beckman gamma 5000.

Row | SMILES | IC50 [nM]
1 | COC(=O)CN1C(=O)C(NCc2c[nH]c3ccccc23)CCc2ccccc21 (racemic) [l-Carbomethoxymethyl-3-(3-indolemethyl)amino homodihydrocarboxtyril] | 15000
2 | CCOC(=O)C(CCc1ccccc1)NC1CCc2ccccc2N(C)C1=O (single isomer, unassigned) [1-Methyl-3-(1-Carboethoxy-3-phenyl-1-propyl) aminohomodihydrocarbostyril] | 60000
3 | CC(=O)N[C@H](Cc1c[nH]c2ccccc12)C(=O)NC1CCc2ccccc2N(CC(=O)OC(C)(C)C)C1=O (single isomer, unassigned) [1-t-Butoxycarbonylmethyl-3-(D-N-acetyltryptophanyl)-aminohomodihydrocarbostyril] | 1600
4 | CC(C)(C)OC(=O)CN1C(=O)C(NC(=O)[C@H](Cc2c[nH]c3ccccc23)NC(=O)OCc2ccccc2)CCc2ccccc21 (single isomer, unassigned) [l-t-Butoxycarbonylmethyl-3(-L-N-carbobenzyloxytrypto- phanyl)aminohomodihydrocarbostyril] | 1200
5 | CC(=O)N[C@@H](Cc1c[nH]c2ccccc12)C(=O)NC1CCc2ccccc2N(CC(=O)OC(C)(C)C)C1=O (single isomer, unassigned) [l-t-Butoxycarbonylmethyl-3-(L-N-acetyltryptophanyl)-aminohomodihydrocarbostyril] | 2800
